Source: patent US20100298141A1, “SUBSTITUTED PYRIDINE N-OXIDE HERBICIDES” (E. I. DU PONT DE NEMOURS AND COMPANY, priority 2007, published 2010)

Experiments:
Italian ryegrass = experiment: Test F preemergence test; format: in vivo, Lolium multiflorum; settings: scale 0 to 100
Method in brief: (§1)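 Test chemicals were formulated in a non-phytotoxic solvent mixture with surfactant and applied preemergence to planted seeds or postemergence to sugarcane plants. Plants were kept in a greenhouse for 14 to 21 days, then visually evaluated against controls.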

broadleaf signalgrass = experiment: Test F preemergence test; format: in vivo, Brachiaria platyphylla; settings: scale 0 to 100; for Plant response rating, Signalgrass: 31 g ai/ha
Method in brief: as §1

annual bluegrass = experiment: Test F preemergence test; format: in vivo, Poa annua; settings: scale 0 to 100
Method in brief: as §1

purple nutsedge = experiment: Test F preemergence test; format: in vivo, Cyperus rotundus; settings: scale 0 to 100
Method in brief: as §1

naked crabgrass = experiment: Test F preemergence test; format: in vivo, Digitaria nuda; settings: scale 0 to 100
Method in brief: as §1

common ragweed = experiment: Test F preemergence test; format: in vivo, Ambrosia elation; settings: scale 0 to 100
Method in brief: as §1

goosegrass = experiment: Test F preemergence test; format: in vivo, Eleusine indica; settings: scale 0 to 100
Method in brief: as §1

Surinam grass = experiment: Test F preemergence test; format: in vivo, Brachiaria decumbens; settings: scale 0 to 100; for Plant response rating, Surinam Grass: 31 g ai/ha
Method in brief: as §1

pitted morningglory = experiment: Test F preemergence test; format: in vivo, Ipomoea lacunosa; settings: scale 0 to 100
Method in brief: as §1

rice = experiment: Test C flooded paddy test; format: in vivo, Oryza sativa; settings: Flood
Method in brief: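 Visual injury ratings against untreated controls, taken 13 to 15 days after compound was added to paddy water standing 3 cm above the soil.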

kochia = experiment: Test F preemergence test; format: in vivo, Kochia scoparia; settings: scale 0 to 100
Method in brief: as §1

large crabgrass = experiment: Test F preemergence test; format: in vivo, Digitaria sanguinalis; settings: scale 0 to 100
Method in brief: as §1

johnsongrass = experiment: Test F preemergence test; format: in vivo, Sorghum halepense; settings: scale 0 to 100
Method in brief: as §1

Virginia dayflower = experiment: Test F preemergence test; format: in vivo, Commelina virginica; settings: scale 0 to 100
Method in brief: as §1

morningglory = experiment: Test C pre-/postemergence test; format: in vivo, Ipomoea coccinea
Method in brief: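 Seeds were planted and treated preemergence with test chemical in a non-phytotoxic solvent mixture containing surfactant. Postemergence applications of the same formulation went onto plants 2 to 18 cm tall (1- to 4-leaf stage). A dash marks no test result.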

bermudagrass = experiment: Test F preemergence test; format: in vivo, Cynodon dactylon; settings: scale 0 to 100
Method in brief: as §1

[1] = 31 g ai/ha, scale 0 to 100 (0 no effect, 100 complete control)
[2] = 62 g ai/ha, scale 0 to 100, 0 no effect, 100 complete control, 13 to 15 days
[3] = 125 g ai/ha, scale 0 to 100, 0 no effect, 100 complete control, 13 to 15 days
[4] = 250 g ai/ha, scale 0 to 100 (0 no effect, 100 complete control)

With `Cn1nc(C(F)(F)F)c(CS(=O)(=O)c2cccc[n+]2[O-])c1OCC(F)(F)F` [Compound 29] the “Ryegrass, Italian plant response rating” value (Italian ryegrass; 62 g ai/ha, Preemergence) was 100, the “Ryegrass, Italian plant response rating” value (Italian ryegrass; 125 g ai/ha, preemergence) was 100 and the “Plant response rating, Ryegrass, Italian” value (Italian ryegrass; Preemergence, 16 g ai/ha) was 65. The “Plant response rating, Ryegrass, Italian” value (Italian ryegrass; Preemergence, 31 g ai/ha) was 100, the “Signalgrass plant response rating” value (broadleaf signalgrass; 62 g ai/ha, Preemergence) was 100 and the “Signalgrass plant response rating” value (broadleaf signalgrass; 125 g ai/ha, preemergence) was 100. For the same molecule, the “Plant response rating, Signalgrass” value (broadleaf signalgrass; Preemergence) was 50, the “Bluegrass plant response rating” value (annual bluegrass; 62 g ai/ha, Preemergence) was 98 and the “Bluegrass plant response rating” value (annual bluegrass; 125 g ai/ha, preemergence) was 100. The “Plant response rating, Bluegrass” value (annual bluegrass; Preemergence, 16 g ai/ha) was 20, the “Plant response rating, Bluegrass” value (annual bluegrass; Preemergence, 31 g ai/ha) was 75 and the “Purple Nutsedge plant response rating” value (purple nutsedge; 125 g ai/ha, preemergence) was 75. For the same molecule, the “Plant response rating, Purple Nutsedge” value (purple nutsedge; Preemergence, 16 g ai/ha) was 20, the “Plant response rating, Purple Nutsedge” value (purple nutsedge; Preemergence, 31 g ai/ha) was 35 and the “Crabgrass, Naked plant response rating” value (naked crabgrass; 62 g ai/ha, Preemergence) was 100. The “Crabgrass, Naked plant response rating” value (naked crabgrass; 125 g ai/ha, preemergence) was 100, the “Plant response rating, Crabgrass, Naked” value (naked crabgrass; Preemergence, 31 g ai/ha) was 80 and the “Ragweed plant response rating” value (common ragweed; 62 g ai/ha, Preemergence) was 70. For the same molecule, the “Ragweed plant response rating” value (common ragweed; 125 g ai/ha, preemergence) was 80, the “Plant response rating, Ragweed” value (common ragweed; Preemergence, 16 g ai/ha) was 0 and the “Plant response rating, Ragweed” value (common ragweed; Preemergence, 31 g ai/ha) was 40. For the same molecule, the “Goosegrass plant response rating” value (goosegrass; 62 g ai/ha, Preemergence) was 100, the “Goosegrass plant response rating” value (goosegrass; 125 g ai/ha, preemergence) was 100 and the “Plant response rating, Goosegrass” value (goosegrass; Preemergence, 16 g ai/ha) was 65. The “Plant response rating, Goosegrass” value (goosegrass; Preemergence, 31 g ai/ha) was 100, the “Surinam Grass plant response rating” value (Surinam grass; 62 g ai/ha, Preemergence) was 100 and the “Surinam Grass plant response rating” value (Surinam grass; 125 g ai/ha, preemergence) was 100. The “Plant response rating, Surinam Grass” value (Surinam grass; Preemergence) was 75, the “Morningglory plant response rating” value (pitted morningglory; 62 g ai/ha, Preemergence) was 60 and the “Morningglory plant response rating” value (pitted morningglory; 125 g ai/ha, preemergence) was 80. For the same molecule, the “Plant response rating, Morningglory” value (pitted morningglory; Preemergence, 16 g ai/ha) was 0, the “Plant response rating, Morningglory” value (pitted morningglory; Preemergence, 31 g ai/ha) was 0 and the “Plant response rating, Rice” value (rice; [1]) was 0. The “Plant response rating, Rice” value (rice; [2]) was 0, the “Plant response rating, Rice” value (rice; [3]) was 40 and the “Plant response rating, Rice” value (rice; [4]) was 80. The “Kochia plant response rating” value (kochia; 62 g ai/ha, Preemergence) was 100, the “Kochia plant response rating” value (kochia; 125 g ai/ha, preemergence) was 100 and the “Plant response rating, Kochia” value (kochia; Preemergence, 16 g ai/ha) was 0. For the same molecule, the “Plant response rating, Kochia” value (kochia; Preemergence, 31 g ai/ha) was 30, the “Crabgrass, Large plant response rating” value (large crabgrass; 62 g ai/ha, Preemergence) was 95 and the “Crabgrass, Large plant response rating” value (large crabgrass; 125 g ai/ha, preemergence) was 100. For the same molecule, the “Plant response rating, Crabgrass, Large” value (large crabgrass; Preemergence, 16 g ai/ha) was 15, the “Plant response rating, Crabgrass, Large” value (large crabgrass; Preemergence, 31 g ai/ha) was 95 and the “Johnsongrass plant response rating” value (johnsongrass; 62 g ai/ha, Preemergence) was 100. For the same molecule, the “Johnsongrass plant response rating” value (johnsongrass; 125 g ai/ha, preemergence) was 100, the “Plant response rating, Johnsongrass” value (johnsongrass; Preemergence, 16 g ai/ha) was 70 and the “Plant response rating, Johnsongrass” value (johnsongrass; Preemergence, 31 g ai/ha) was 100. For the same molecule, the “Dayflower plant response rating” value (Virginia dayflower; 62 g ai/ha, Preemergence) was 100, the “Dayflower plant response rating” value (Virginia dayflower; 125 g ai/ha, preemergence) was 100 and the “Plant response rating, Dayflower” value (Virginia dayflower; Preemergence, 16 g ai/ha) was 0. The “Plant response rating, Dayflower” value (Virginia dayflower; Preemergence, 31 g ai/ha) was 95, the “Morningglory plant response rating” value (morningglory; 62 g ai/ha, Preemergence, scale 0 to 100) was 10 and the “Plant response rating, Morningglory” value (morningglory; Preemergence, 31 g ai/ha, scale 0 to 100 (0 no effect, 100 complete control)) was 0. For the same molecule, the “Bermudagrass plant response rating” value (bermudagrass; 125 g ai/ha, preemergence) was 100, the “Plant response rating, Bermudagrass” value (bermudagrass; Preemergence, 16 g ai/ha) was 40 and the “Plant response rating, Bermudagrass” value (bermudagrass; Preemergence, 31 g ai/ha) was 90.

`Cn1nc(C(F)(F)F)c(C[S+]([O-])c2cccc[n+]2[O-])c1Cl` (centres unmarked) [Compound 8] was tested, and the “Ryegrass, Italian plant response rating” value (Italian ryegrass; 62 g ai/ha, Preemergence) was 75, the “Ryegrass, Italian plant response rating” value (Italian ryegrass; 125 g ai/ha, preemergence) was 100 and the “Plant response rating, Ryegrass, Italian” value (Italian ryegrass; Preemergence, 16 g ai/ha) was 0. The “Plant response rating, Ryegrass, Italian” value (Italian ryegrass; Preemergence, 31 g ai/ha) was 40, the “Signalgrass plant response rating” value (broadleaf signalgrass; 62 g ai/ha, Preemergence) was 75 and the “Signalgrass plant response rating” value (broadleaf signalgrass; 125 g ai/ha, preemergence) was 85. The “Plant response rating, Signalgrass” value (broadleaf signalgrass; Preemergence) was 65, the “Bluegrass plant response rating” value (annual bluegrass; 62 g ai/ha, Preemergence) was 0 and the “Bluegrass plant response rating” value (annual bluegrass; 125 g ai/ha, preemergence) was 70. For the same molecule, the “Plant response rating, Bluegrass” value (annual bluegrass; Preemergence, 16 g ai/ha) was 0, the “Plant response rating, Bluegrass” value (annual bluegrass; Preemergence, 31 g ai/ha) was 0 and the “Purple Nutsedge plant response rating” value (purple nutsedge; 62 g ai/ha, Preemergence) was 50. The “Purple Nutsedge plant response rating” value (purple nutsedge; 125 g ai/ha, preemergence) was 65, the “Plant response rating, Purple Nutsedge” value (purple nutsedge; Preemergence, 16 g ai/ha) was 0 and the “Plant response rating, Purple Nutsedge” value (purple nutsedge; Preemergence, 31 g ai/ha) was 0. The “Crabgrass, Naked plant response rating” value (naked crabgrass; 62 g ai/ha, Preemergence) was 90, the “Crabgrass, Naked plant response rating” value (naked crabgrass; 125 g ai/ha, preemergence) was 100 and the “Plant response rating, Crabgrass, Naked” value (naked crabgrass; Preemergence, 16 g ai/ha) was 60. For the same molecule, the “Plant response rating, Crabgrass, Naked” value (naked crabgrass; Preemergence, 31 g ai/ha) was 75, the “Ragweed plant response rating” value (common ragweed; 62 g ai/ha, Preemergence) was 35 and the “Ragweed plant response rating” value (common ragweed; 125 g ai/ha, preemergence) was 80. The “Plant response rating, Ragweed” value (common ragweed; Preemergence, 16 g ai/ha) was 0, the “Plant response rating, Ragweed” value (common ragweed; Preemergence, 31 g ai/ha) was 35 and the “Goosegrass plant response rating” value (goosegrass; 62 g ai/ha, Preemergence) was 80. The “Goosegrass plant response rating” value (goosegrass; 125 g ai/ha, preemergence) was 100, the “Plant response rating, Goosegrass” value (goosegrass; Preemergence, 16 g ai/ha) was 0 and the “Plant response rating, Goosegrass” value (goosegrass; Preemergence, 31 g ai/ha) was 70. The “Surinam Grass plant response rating” value (Surinam grass; 62 g ai/ha, Preemergence) was 90, the “Surinam Grass plant response rating” value (Surinam grass; 125 g ai/ha, preemergence) was 100 and the “Plant response rating, Surinam Grass” value (Surinam grass; Preemergence) was 70. For the same molecule, the “Morningglory plant response rating” value (pitted morningglory; 62 g ai/ha, Preemergence) was 0, the “Morningglory plant response rating” value (pitted morningglory; 125 g ai/ha, preemergence) was 35 and the “Plant response rating, Morningglory” value (pitted morningglory; Preemergence, 16 g ai/ha) was 0. For the same molecule, the “Plant response rating, Morningglory” value (pitted morningglory; Preemergence, 31 g ai/ha) was 0, the “Plant response rating, Rice” value (rice; [1]) was 0 and the “Plant response rating, Rice” value (rice; [2]) was 0. The “Plant response rating, Rice” value (rice; [3]) was 0, the “Plant response rating, Rice” value (rice; [4]) was 20 and the “Kochia plant response rating” value (kochia; 62 g ai/ha, Preemergence) was 0. The “Kochia plant response rating” value (kochia; 125 g ai/ha, preemergence) was 100, the “Plant response rating, Kochia” value (kochia; Preemergence, 16 g ai/ha) was 0 and the “Plant response rating, Kochia” value (kochia; Preemergence, 31 g ai/ha) was 0. The “Crabgrass, Large plant response rating” value (large crabgrass; 62 g ai/ha, Preemergence) was 90, the “Crabgrass, Large plant response rating” value (large crabgrass; 125 g ai/ha, preemergence) was 98 and the “Plant response rating, Crabgrass, Large” value (large crabgrass; Preemergence, 16 g ai/ha) was 0. For the same molecule, the “Plant response rating, Crabgrass, Large” value (large crabgrass; Preemergence, 31 g ai/ha) was 65, the “Johnsongrass plant response rating” value (johnsongrass; 62 g ai/ha, Preemergence) was 95 and the “Johnsongrass plant response rating” value (johnsongrass; 125 g ai/ha, preemergence) was 95. For the same molecule, the “Plant response rating, Johnsongrass” value (johnsongrass; Preemergence, 16 g ai/ha) was 0, the “Plant response rating, Johnsongrass” value (johnsongrass; Preemergence, 31 g ai/ha) was 75 and the “Dayflower plant response rating” value (Virginia dayflower; 62 g ai/ha, Preemergence) was 0. For the same molecule, the “Dayflower plant response rating” value (Virginia dayflower; 125 g ai/ha, preemergence) was 75, the “Plant response rating, Dayflower” value (Virginia dayflower; Preemergence, 16 g ai/ha) was 0 and the “Plant response rating, Dayflower” value (Virginia dayflower; Preemergence, 31 g ai/ha) was 0. For the same molecule, the “Morningglory plant response rating” value (morningglory; 31 g ai/ha, Preemergence, scale 0 to 100) was 5, the “Morningglory plant response rating” value (morningglory; 62 g ai/ha, preemergence, scale 0 (no effect) to 100 (complete control)) was 90 and the “Plant response rating (0 to 100), Morningglory” value (morningglory; Preemergence, 250 g ai/ha) was 100. The “Morningglory plant response rating” value (morningglory; preemergence, 125 g ai/ha, scale 0 (no effect) to 100 (complete control)) was 100, the “Bermudagrass plant response rating” value (bermudagrass; 62 g ai/ha, Preemergence) was 75 and the “Bermudagrass plant response rating” value (bermudagrass; 125 g ai/ha, preemergence) was 90. For the same molecule, the “Plant response rating, Bermudagrass” value (bermudagrass; Preemergence, 16 g ai/ha) was 0 and the “Plant response rating, Bermudagrass” value (bermudagrass; Preemergence, 31 g ai/ha) was 15.
